Activity calls are given as the source filed them. The rule behind the calls is not given here.
Experiments:
Rattus norvegicus [1] = species on record: Rattus norvegicus; test: Pharmacological potency relative to indomethacin for prodrug candidate by adjuvant-induced arthritis assay; format: functional
Rattus norvegicus [2] = species on record: Rattus norvegicus; test: (§1) Potency in adjuvant-induced arthritis assay/ potency in intestinal toxicity assay.; format: functional
Cyclooxygenase = target: T1, Cyclooxygenase (Rattus norvegicus, UniProt P35355+Q63921)
T1 sequence (P35355 whole entry): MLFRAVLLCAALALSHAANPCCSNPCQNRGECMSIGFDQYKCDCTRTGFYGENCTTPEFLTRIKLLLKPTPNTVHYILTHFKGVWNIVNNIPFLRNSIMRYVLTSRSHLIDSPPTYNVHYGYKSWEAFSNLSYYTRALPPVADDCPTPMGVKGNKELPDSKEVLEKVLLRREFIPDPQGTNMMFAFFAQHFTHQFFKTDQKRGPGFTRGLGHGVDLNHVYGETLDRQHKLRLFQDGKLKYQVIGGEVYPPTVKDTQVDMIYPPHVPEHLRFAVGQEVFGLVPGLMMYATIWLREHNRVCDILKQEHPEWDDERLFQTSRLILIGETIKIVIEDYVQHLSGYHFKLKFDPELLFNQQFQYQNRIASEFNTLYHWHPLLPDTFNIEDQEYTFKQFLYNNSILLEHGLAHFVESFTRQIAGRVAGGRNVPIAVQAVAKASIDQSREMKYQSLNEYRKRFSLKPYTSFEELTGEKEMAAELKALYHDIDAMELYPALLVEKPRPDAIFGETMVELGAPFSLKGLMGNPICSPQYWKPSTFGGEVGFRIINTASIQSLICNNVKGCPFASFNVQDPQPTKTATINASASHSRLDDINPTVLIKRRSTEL
T1 sequence (Q63921 whole entry): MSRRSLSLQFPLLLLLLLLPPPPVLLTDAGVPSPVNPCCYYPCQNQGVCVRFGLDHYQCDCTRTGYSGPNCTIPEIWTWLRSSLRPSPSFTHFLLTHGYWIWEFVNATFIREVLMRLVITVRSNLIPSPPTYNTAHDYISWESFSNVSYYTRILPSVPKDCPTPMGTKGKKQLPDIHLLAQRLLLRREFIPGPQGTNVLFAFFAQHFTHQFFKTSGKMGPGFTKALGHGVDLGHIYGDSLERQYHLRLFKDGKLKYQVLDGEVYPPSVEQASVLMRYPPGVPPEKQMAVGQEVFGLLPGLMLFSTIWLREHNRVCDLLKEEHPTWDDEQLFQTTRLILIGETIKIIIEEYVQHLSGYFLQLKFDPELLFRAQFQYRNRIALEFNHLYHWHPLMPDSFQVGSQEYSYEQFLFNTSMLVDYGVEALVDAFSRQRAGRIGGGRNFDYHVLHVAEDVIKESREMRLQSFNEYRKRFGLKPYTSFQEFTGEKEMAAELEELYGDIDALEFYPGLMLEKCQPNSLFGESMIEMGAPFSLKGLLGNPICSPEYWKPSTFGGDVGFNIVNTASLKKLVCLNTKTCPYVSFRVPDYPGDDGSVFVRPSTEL

[3] = Antiinflammatory activity was tested in Pleural effusion rate assay and the percent change in average volume of pleural fluid at the dose of 316 mg/kg; Inactive
Rattus norvegicus [4] = test: Antiinflammatory activity was tested in Pleural effusion rate assay for and the percent change in average volume of pleural fluid at the dose of 4.0 mg/kg; format: functional
[5] = as §1; details: read-out: Therapeutic index
[6] = target: Prostaglandin G/H synthase 1 (Ovis aries) (UniProt P05979); test: Inhibitory activity against Prostaglandin G/H synthase
Rattus norvegicus [7] = species on record: Rattus norvegicus; test: potency in adjuvant-induced arthritis assay/ potency in intestinal toxicity assay.; format: functional

SMILES | Potency (Rattus norvegicus [1]) | Therapeutic index (Rattus norvegicus [2]) | IC50 (Cyclooxygenase) | also measured
O=C(O)Cc1cccc2c(-c3ccccc3)onc12 | 0.6 | 2.5 | > 1000 µM | 
CCOC(=O)Cc1cccc(C(=O)c2ccccc2)c1N | 0.3 | 0.4 | 50 µM | 
CN(C)c1c(CC(=O)O)cccc1C(=O)c1ccccc1 | 0.009 |  | > 1000 µM | 
CCOC(=O)Cc1cccc(C(=O)c2ccc(Cl)cc2)c1N | 1 | 1.7 | 73 µM | 
O=C1Cc2cccc(C(=O)c3ccc(Cl)cc3)c2N1 |  |  |  | Change [3]: inactive
Nc1c(CC(=O)[O-])cccc1C(O)c1ccc(Cl)cc1.[Na+] (stereo unspecified) | 0.002 |  | > 1000 µM | 
Nc1c(C(=O)CCC(=O)O)cccc1C(=O)c1ccccc1 | 0.4 | 2.5 | > 1000 µM | 
O=C(O)Cc1cccc(C(=O)c2ccccc2)c1[N+](=O)[O-] | 0.5 | 5 | > 1000 µM | 
O=C(O)Cc1cccc(C(=O)c2ccc(Cl)cc2)c1[N+](=O)[O-] | 1.7 |  |  | Change (Rattus norvegicus [4]): -21%; selectivity ratio [5]: 3.4; IC50 [6]: > 1000 µM
CC(=O)Nc1c(CC(=O)O)cccc1C(=O)c1ccccc1 |  |  |  | Change [3]: inactive
Nc1c(CC(=O)[O-])cccc1C(=O)c1ccccc1.[Na+] [AMFENAC SODIUM] | 1.1 | 2.8 | 0.1 µM | 
Nc1c(C(=O)CCC(=O)O)cccc1C(=O)c1ccc(Cl)cc1 | 0.9 | 3 | > 1000 µM | 
O=C1Cc2cccc(C(=O)c3ccccc3)c2N1 |  |  |  | Change [3]: inactive
O=C(O)Cc1cccc2c(-c3ccc(Cl)cc3)onc12 | 1 |  | > 500 µM | Therapeutic index (Rattus norvegicus [7]): 1
Nc1c(CCO)cccc1C(O)c1ccc(Cl)cc1 (stereo unspecified) | 0.05 |  | > 1000 µM | 
Nc1c(CCO)cccc1C(=O)c1ccccc1 | 0.05 |  | > 100 µM | 
NC(=O)Cc1cccc(C(=O)c2ccccc2)c1N | 0.09 |  | > 100 µM | 
NC(=O)Cc1cccc(C(=O)c2ccc(Cl)cc2)c1N | 0.8 | 10 | > 1000 µM | 
CCOC(=O)Cc1cccc(C(=O)c2ccc(Cl)cc2)c1NC(=O)C(F)(F)F | 1 | 3.3 | > 1000 µM | 
COc1ccc2c(c1)c(CC(=O)O)c(C)n2C(=O)c1ccc(Cl)cc1 [INDOMETHACIN] | 1 |  |  | 
Nc1c(CC(=O)[O-])cccc1C(=O)c1ccc(Cl)cc1.[Na+] | 2.2 | 1.6 | 0.1 µM | 
Nc1c(CCO)cccc1C(=O)c1ccc(Cl)cc1 | 0.8 | 3.3 | > 1000 µM | 
N#CCc1cccc(C(=O)c2ccc(Cl)cc2)c1N |  |  |  | Change [3]: inactive
CC(=O)c1cccc(C(=O)c2ccccc2)c1N |  |  |  | Change [3]: inactive
Nc1c(CCO)cccc1C(O)c1ccccc1 (stereo unspecified) | 0.005 |  | > 500 µM | 
Nc1c(CC(=O)[O-])cccc1C(=O)C1CCCCC1.[Na+] | 0.004 |  |  | 
Nc1c(CC(=O)[O-])cccc1C(O)c1ccccc1.[Na+] (stereo unspecified) | 0.001 |  | > 1000 µM | 
